Patent US7915238B2, “Immunomodulatory compounds and methods of use thereof” (Eisai R & D Management Co., Ltd., priority 1999, dated 2011)

test system: Human Whole Blood; assay: Cytokine release in human whole blood (ELISA); type: cell-based; conditions: FIG. 1
Method: The most readily available human system to test compound activity on monocytes/macrophages is in whole blood. Various concentrations of compounds of the invention were added as 10× stocks in 50 μl of Ca^++, Mg^++-free Hank's balanced salt solution (HBSS) followed by 50 μl of HBSS into 400 μl of heparinized whole blood obtained from normal volunteers (18-51 years old; 110-230 lb.) into the wells of plastic assay plates, for a total volume of 500 μl/well (final concentration of whole blood was 80%). After a 3-hour incubation with gentle shaking at 37° C. in a 5% CO2 atmosphere, the assay plates were centrifuged at 1000×g for 10 min. at 4° C. and plasma was drawn off and frozen at −80° C. Plasma samples were analyzed for TNF-alpha, IL-10, and IL-12 by ELISA (Genzyme Corp., Cambridge, Mass.). Each assay point was tested in triplicate.
This stimulatory activity can be compared to that of 10 ng/ml endotoxin (or LPS) present in similar incubations in the same assay.

With `CCCCCCCCCCCCCC(=O)NC(COCC[C@@H](CCCCCCC)OC(=O)CCCCCCCCCCC)COP(=O)([O-])OCCNC(=O)NCCOP(=O)([O-])OCC(COCC[C@@H](CCCCCCC)OC(=O)CCCCCCCCCCC)NC(=O)CCCCCCCCCCCCC.[Na+].[Na+]` (stereo partly drawn) [ER 119327] as the compound, how does the “TNF-alpha release from blood-borne cells” value read?
Its value is “stimulate blood-borne cells to release TNF-alpha”.

`CCCCCC/C=C\CCCC(=O)O[C@H](CCCCCCC)CCOCC(COP(=O)([O-])OCCNC(=O)NCCOP(=O)([O-])OCC(COCC[C@@H](CCCCCCC)OC(=O)CCC/C=C\CCCCCC)NC(=O)CCCCCCCCCCCCC)NC(=O)CCCCCCCCCCCCC.[Na+].[Na+]` (stereo partly drawn) [ER 119328] was tested. Which “TNF-alpha release from blood-borne cells” value did it give?
The value was “stimulate blood-borne cells to release TNF-alpha”.

same assay, conditions: TNF-alpha release; compounds tested at 10 μM; compared to 10 ng/ml LPS; 3-hour incubation

Which “TNF-alpha release in whole blood at 10 μM compound (% of 10 ng/ml LPS response)” value (“TNF-alpha release … (% of 10 ng/ml LPS response)” for short) does the source give for `CCCCCC/C=C\CCCC(=O)O[C@H](CCCCCCC)CCOCC(COP(=O)([O-])OCCNC(=O)C(Cc1ccc(OCCNC(=O)OC(C)(C)C)cc1)C(=O)NCCOP(=O)([O-])OCC(COCC[C@@H](CCCCCCC)OC(=O)CCC/C=C\CCCCCC)NC(=O)CC(=O)CCCCCCCCCCC)NC(=O)CC(=O)CCCCCCCCCCC.[Na+].[Na+]` (stereo partly drawn) [compound 019772] here?
Its value is 69 % of LPS.

Which “TNF-alpha release … (% of 10 ng/ml LPS response)” value does the source give for `CCCCCCCCCCCC(=O)CC(=O)NC(COCC[C@H](O)CCCCCCC)COP(=O)([O-])OCCNC(=O)NCCOP(=O)([O-])OCC(COCC[C@H](O)CCCCCCC)NC(=O)CC(=O)CCCCCCCCCCC.[Na+].[Na+]` (stereo partly drawn) [compound 112043] here?
The value was 0 % of LPS.

With `CCCCCCCCCCCCCCCC(=O)OCC(COP(=O)(O)OCC(O)COP(=O)(O)OCC(COC(=O)CCCCCCCCCCCCCCC)OC(=O)CCCCCCCCCCCCCCC)OC(=O)CCCCCCCCCCCCCCC` (stereo not drawn) [compound 112071] as the compound, how does the “TNF-alpha release … (% of 10 ng/ml LPS response)” value read?
Its value is 0 % of LPS.

`CCCCCCC=CCC=CCCCCCCC(=O)OCC(COP(=O)(O)OCC(O)COP(=O)(O)OCC(COC(=O)CCCCCCC=CCC=CCCCCCC)OC(=O)CCCCCCC=CCC=CCCCCCC)OC(=O)CCCCCCC=CCC=CCCCCCC` (stereo not drawn) [compound 112072] was tested. Which “TNF-alpha release … (% of 10 ng/ml LPS response)” value did it give?
Its value is 0 % of LPS.

`CCCCCC/C=C\CCCC(=O)O[C@H](CCCCCCC)CCOCC(COP(=O)([O-])OCCNC(=O)NCCOP(=O)([O-])OCC(COCC[C@@H](CCCCCCC)OC(=O)CCC/C=C\CCCCCC)NC(=O)C[C@@H](CCCCCCC)OC(=O)CCC/C=C\CCCCCC)NC(=O)C[C@@H](CCCCCCC)OC(=O)CCC/C=C\CCCCCC.[Na+].[Na+]` (stereo partly drawn) [compound 112093] was tested. Which “TNF-alpha release … (% of 10 ng/ml LPS response)” value did it give?
Its value is 0 % of LPS.

`CCCCCC/C=C\CCCC(=O)O[C@H](CCCCCCC)CC(=O)NC(COCC[C@H](O)CCCCCCC)COP(=O)([O-])OCCNC(=O)c1ccccc1C(=O)NCCOP(=O)([O-])OCC(COCC[C@H](O)CCCCCCC)NC(=O)C[C@@H](CCCCCCC)OC(=O)CCC/C=C\CCCCCC.[Na+].[Na+]` (stereo partly drawn) [compound 112859] was tested. Which “TNF-alpha release … (% of 10 ng/ml LPS response)” value did it give?
Its value is 0 % of LPS.

`CCCCCC/C=C\CCCC(=O)O[C@H](CCCCCCC)CC(=O)NC(COCC[C@H](O)CCCCCCC)COP(=O)([O-])OCCNC(=O)c1cccc(C(=O)NCCOP(=O)([O-])OCC(COCC[C@H](O)CCCCCCC)NC(=O)C[C@@H](CCCCCCC)OC(=O)CCC/C=C\CCCCCC)c1.[Na+].[Na+]` (stereo partly drawn) [compound 112860] was tested. Which “TNF-alpha release … (% of 10 ng/ml LPS response)” value did it give?
Its value is 0 % of LPS.

For `CCCCCC/C=C\CCCC(=O)O[C@H](CCCCCCC)CC(=O)NC(COCC[C@H](O)CCCCCCC)COP(=O)([O-])OCCNC(=O)c1ccc(C(=O)NCCOP(=O)([O-])OCC(COCC[C@H](O)CCCCCCC)NC(=O)C[C@@H](CCCCCCC)OC(=O)CCC/C=C\CCCCCC)cc1.[Na+].[Na+]` (stereo partly drawn) [compound 112861], which “TNF-alpha release … (% of 10 ng/ml LPS response)” value is on record?
The value was 0 % of LPS.

same assay, conditions: whole blood; vs. % of LPS at 10 ng/ml; read-out: WB ED50 vs LPS@ 10 ng/ml

For `CCCCCCCCCCCCCC(=O)NC(COCCC(CCCCCCC)OCCCCCCCCCCCC)COP(=O)(O)OCCCCCCCCOP(=O)(O)OCC(COCCC(CCCCCCC)OCCCCCCCCCCCC)NC(=O)CCCCCCCCCCCCC` (mixture of isomers) [compound 804596], which EC50 is on record?
The EC50 was over 10 µM.

How did the EC50 turn out when `CCCCCCCCCCCCCC(=O)N[C@H](COCC[C@@H](CCCCCCC)OC(=O)CCCCCCCCCCC)COP(=O)(O)OCCNC(=O)NCCOP(=O)(O)OC[C@@H](COCC[C@@H](CCCCCCC)OC(=O)CCCCCCCCCCC)NC(=O)CCCCCCCCCCCCC` [ER 804678] was run?
The EC50 was 0.018 µM.
